{"source": "patent US9328138B2", "about": "(priority 2011, dated 2016)", "key": {"[1]": {"conditions": "amide bond, 18-membered ring"}, "[2]": {"target": "HCV NS3 protease genotype 3a (3A-1) (Hepatitis C virus genotype 3a, UniProt Q81258)", "assay": "HCV NS3 protease time-resolved fluorescence (TRF) assay, genotype 3a", "assay_type": "biochemical", "conditions": "Ki 3a", "summary_of_the_method": "(§1)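 Pre-incubation of NS3/NS4A protease with inhibitor for 10 min in pH 7.5 HEPES buffer with 10 mM DTT; 25 nM TRF peptide substrate, hydrolysis 6 h at room temperature. Fluorescence read at ex 340/em 615 nm with 400 μs delay, enzyme level set for S/B 5-20; IC50 by four-parameter fit.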"}, "[3]": {"target": "T1, HCV genotype 1b (BK) NS3 modified enzyme with a R155K mutation (Hepatitis C virus genotype 1b, UniProt P26663, R1181K)", "T1 construct": "HCV genotype 1b (BK) NS3 modified enzyme", "assay": "HCV NS3 protease time-resolved fluorescence (TRF) assay, genotype 1b R155K", "assay_type": "biochemical", "conditions": "Ki 1b R155K, genotype 1b (BK) NS3 R155K; single value", "summary_of_the_method": "as §1"}}, "note": "Read-outs that look alike come from different tables or passages of the source."}
{"smiles": "COC(=O)[C@@H]1C[C@@H]2CN1C(=O)[C@H](C(C)(C)C)NC(=O)O[C@H]1C[C@@H]1CCCCCc1c(nc3ccncc3c1OC1CCN(C)CC1)O2", "values": [{"measurement": "ring closure, yield of all isomers", "setting": "from COC(=O)[C@@H]1C[C@@H](Oc2nc3ccncc3c(OC3CCN(C)CC3)c2CCCCC[C@@H]2C[C@H]2OC(=O)N[C@H](C(=O)OC(C)(C)C)C(C)(C)C)CN1C(=O)OC(C)(C)C, amide bond, HATU, DMF, 51.5 mM, 25.0 °C, 1.5 h, 2 steps", "value": 44.7, "unit": "%"}, {"measurement": "ring closure, isolated yield", "setting": "[1]; HATU, 2 steps", "value": 44.7, "unit": "%"}]}
{"smiles": "COC(=O)[C@@H]1C[C@@H]2CN1C(=O)[C@H](C1Cc3ccccc3C1)NC(=O)O[C@@H]1C[C@H]1CCCC#Cc1c(nc3ccccc3c1OCc1ccccc1)O2", "values": [{"measurement": "ring closure, yield of all isomers", "setting": "from COC(=O)[C@@H]1C[C@@H](Oc2nc3ccccc3c(OCc3ccccc3)c2C#CCCC[C@@H]2C[C@H]2OC(=O)N[C@H](C(=O)O)C2Cc3ccccc3C2)CN1, amide bond, HATU, DMF, 50.0 mM, 25.0 °C, 2.0 h", "value": 80, "unit": "%"}, {"measurement": "ring closure, isolated yield", "setting": "[1]; from COC(=O)[C@@H]1C[C@@H](Oc2nc3ccccc3c(OCc3ccccc3)c2C#CCCC[C@@H]2C[C@H]2OC(=O)N[C@H](C(=O)O)C2Cc3ccccc3C2)CN1, HATU/DIEA, DMF, 50.0 mM", "value": 80, "unit": "%"}]}
{"smiles": "CCOC(=O)[C@@]12C[C@H]1C=CCCCCC[C@H](NC(=O)OC(C)(C)C)C(=O)N1C[C@@H](OS(=O)(=O)c3ccc(Br)cc3)C[C@H]1C(=O)N2C(=O)OC(C)(C)C", "values": [{"measurement": "ring closure, yield of all isomers", "setting": "from C=CCCCCC[C@H](NC(=O)OC(C)(C)C)C(=O)N1C[C@@H](OS(=O)(=O)c2ccc(Br)cc2)C[C@H]1C(=O)N(C(=O)OC(C)(C)C)[C@]1(C(=O)OCC)C[C@H]1C=C, rcm bond, Zhan catalyst 1B, 1,2-dichloroethane, 10.0 mM, 75.0 °C, 2.0 h", "value": 84.8, "unit": "%"}]}
{"smiles": "COC(=O)[C@@H]1C[C@@H]2CN1C(=O)[C@H](C1(C)CCCCC1)NC(=O)O[C@@H]1C[C@H]1CCCC#Cc1c(nc3ccccc3c1OCc1ccccc1)O2", "values": [{"measurement": "ring closure, yield of all isomers", "setting": "from COC(=O)[C@@H]1C[C@@H](Oc2nc3ccccc3c(OCc3ccccc3)c2C#CCCC[C@@H]2C[C@H]2OC(=O)N[C@H](C(=O)O)C2(C)CCCCC2)CN1, amide bond, HATU, DMF, 50.0 mM, 25.0 °C, 3.0 h", "value": 58.8, "unit": "%"}, {"measurement": "ring closure, isolated yield", "setting": "[1]; from COC(=O)[C@@H]1C[C@@H](Oc2nc3ccccc3c(OCc3ccccc3)c2C#CCCC[C@@H]2C[C@H]2OC(=O)N[C@H](C(=O)O)C2(C)CCCCC2)CN1, HATU/DIEA, DMF, 50.0 mM", "value": 58.8, "unit": "%"}]}
{"smiles": "CCOC(=O)[C@@]12C[C@H]1/C=C\\CCCCC[C@@H]1NC(=O)O[C@@H]3C[C@H]3CCC/C=C/c3c(nc4ccccc4c3OCCN3CCCCC3)O[C@@H]3C[C@@H](C(=O)N2)N(C3)C1=O", "values": [{"measurement": "ring closure, yield of all isomers", "setting": "from CCOC(=O)[C@@]12C[C@H]1/C=C\\CCCCC[C@H](NC(=O)O[C@@H]1C[C@H]1CCC/C=C/B1OC(C)(C)C(C)(C)O1)C(=O)N1C[C@H](Oc3nc4ccccc4c(OCCN4CCCCC4)c3Br)C[C@H]1C(=O)N2, cc_pd bond, Pd(OAc)2/cataCXium A, Cs2CO3, dioxane, 36.6 mM, 100.0 °C, 1.0 h", "value": 64.1, "unit": "%"}]}
{"smiles": "CCOc1c2c(nc3ccccc13)O[C@@H]1C[C@@H](C(=O)OC)N(C1)C(=O)[C@H](C1CCCC1)NC(=O)O[C@@H]1CCC[C@H]1CCC=CC2", "values": [{"measurement": "ring closure, yield of all isomers", "setting": "from C=CCC[C@@H]1CCC[C@H]1OC(=O)N[C@H](C(=O)N1C[C@H](Oc2nc3ccccc3c(OCC)c2CC=C)C[C@H]1C(=O)OC)C1CCCC1, rcm bond, Zhan catalyst 1B, 1,2-dichloroethane, 6.79 mM, 25.0 °C, 4.0 h", "value": 79.2, "unit": "%"}]}
{"smiles": "C=C[C@@H]1C[C@]1(NC(=O)[C@@H]1C[C@@H]2CN1C(=O)[C@H](C(C)(C)C)NC(=O)O[C@@H]1C[C@H]1CCCCCc1c(nc3ccccc3c1OCCCN(C)C(C)C(O)c1ccccc1)O2)C(=O)NS(=O)(=O)C1(C)CC1", "note": "(stereo partly drawn) [Example 190, (1aR,5S,8S,10R,22aR)-5-tert-butyl-N-[(1R,2S)-2-ethenyl-1-{[(1-methylcyclopropyl)sulfonyl]carbamoyl}cyclopropyl]-17-{3-[(1-hydroxy-1-phenylpropan-2-yl)(methyl)amino]propoxy}-3,6-dioxo-1,1a,3,4,5,6,9,10,18,19,20,21,22,22a-tetradecahydro-8H-7,10-methanocyclopropa[18,19][1,10,3,6] dioxadiazacyclononadecino[11,12-b] quinoline-8-carboxamide]", "values": [{"measurement": "Ki", "setting": "[2]", "value": 1500, "unit": "pM"}, {"measurement": "Ki", "setting": "[3]", "value": 74, "unit": "pM"}]}
